According to the NIST ThermoML archive (doi:10.1021/je060150a):

Assays:
[1] = refractive index (Na D-line) (dimensionless); settings: 101.33 kPa, Liquid, Standard Abbe refractometry
[2] = Liquid; for mass density / viscosity: 101 kPa
[3] = xn = mol fraction of the nth substance listed; settings: 101 kPa, Liquid

ClC(Cl)Cl [trichloromethane]
Settings	mass density, [2] [kg/m3]	refractive index, [1]	vapor or sublimation pressure, [2] [kPa]	viscosity, [2] [mPa·s]
283.15 K	1507.3	1.45189	–	0.629
293.15 K	1488.4	1.44589	–	0.573
303.15 K	1469.4	1.43987	32.19	0.516
313.15 K	1450	1.43386	–	0.468

CCC(C)=O [butanone]
Settings	mass density, [2] [kg/m3]	refractive index, [1]	vapor or sublimation pressure, [2] [kPa]	viscosity, [2] [mPa·s]
283.15 K	815.9	1.384	–	0.472
293.15 K	805.5	1.37888	–	0.423
303.15 K	795.1	1.37383	15.74	0.382
313.15 K	784.3	1.36856	–	0.347

ClC(Cl)Cl [trichloromethane] + CCC(C)=O
[3]
Settings	mass density, 283.15 K [kg/m3]	mass density, 293.15 K [kg/m3]	mass density, 303.15 K [kg/m3]	mass density, 313.15 K [kg/m3]	viscosity, 283.15 K [mPa·s]	viscosity, 293.15 K [mPa·s]	viscosity, 303.15 K [mPa·s]	viscosity, 313.15 K [mPa·s]
x1 = 0.0906	872.7	861.7	850.7	839.3	0.528	0.475	0.419	0.385
x1 = 0.1806	930.4	918.7	907.1	895.1	0.588	0.526	0.468	0.42
x1 = 0.272	990.2	977.9	965.6	952.9	0.627	0.556	0.499	0.451
x1 = 0.3661	1053.3	1040.2	1027.2	1013.7	0.66	0.594	0.53	0.477
x1 = 0.4551	1113.9	1100.2	1086.4	1072.3	0.692	0.62	0.553	0.498
x1 = 0.549	1179.5	1165	1150.5	1135.5	0.711	0.633	0.565	0.51
x1 = 0.633	1238.9	1223.7	1208.5	1192.7	0.712	0.636	0.571	0.515
x1 = 0.7035	1289.3	1273.6	1257.7	1241.3	0.717	0.631	0.566	0.513
x1 = 0.7973	1357.5	1340.7	1323.9	1306.6	0.701	0.63	0.566	0.51
x1 = 0.9068	1437.7	1419.8	1401.8	1383.4	0.674	0.61	0.546	0.491
x1 = 1	1507.3	1488.4	1469.4	1450	0.629	0.573	0.516	0.468

CCC(C)=O [butanone] + ClC(Cl)Cl
[3], x2 = 0
Settings	mass density [kg/m3]	viscosity [mPa·s]
283.15 K	815.9	0.472
293.15 K	805.5	0.423
303.15 K	795.1	0.382
313.15 K	784.3	0.347
